Data taken from patent US9187749B2, “Methods for modulating factor 12 expression” (Isis Pharmaceuticals, Inc., priority 2011, dated 2015).
e = 2'-O-(2-methoxyethyl) (MOE); d = 2'-deoxy (DNA)

How the values were obtained:
[1] = system: mice; assay: Vascular leakage, Evans Blue in plasma, captopril-induced (Example 4); format: in vivo, mouse; details: HOE-140 30 μg ip, percentage increase or decrease vs Group 1 PBS
Experimental: Groups 4, 5, 6, 7, 8, and 9 consisted of 8 mice each and were treated with 2.5 mg/kg, 5 mg/kg, 10 mg/kg, 20 mg/kg, 40 mg/kg, or 80 mg/kg (corresponding to 5 mg/kg, 10 mg/kg, 20 mg/kg, 40 mg/kg, 80 mg/kg, or 160 mg/kg per week), respectively, of ISIS 410944 administered subcutaneously twice a week for 3 weeks. At the end of the treatment period, the mice of all the groups were intraperitoneally administered 20 μg of captopril. Groups 4-9 served as the experimental treatment groups for examining the effect of varying doses of ISIS 410944 on captopril-induced vascular permeability.
All the groups were then injected with 30 mg/kg of Evans Blue solution in the tail vein. The mice were sacrificed 30 min after the Evans Blue solution administration and colons, feet, ears, and intestines were harvested. Blood samples were taken through cardiac puncture.
The blood drawn through cardiac puncture was immediately mixed with 3 times the volume of ice-cold ethanol. The solution was centrifuged at 15,000 g for 20 minutes at 4° C. to remove cell debris and precipitated plasma proteins. The ethanol extracts were further purified by ultra-filtration through a 10 kDa MWCO filter. The color intensity of the ethanol extracted plasma solution was then measured at OD620nm. The results are presented in Table 7 as percentage increase or decrease of the OD values of the Group 1 PBS control.

[2] = system: mice; assay: Evans Blue vascular permeability, ISIS 461756-induced model (Example 9); format: in vivo, mouse; details: all groups given ISIS 461756 12.5 mg/kg sc twice a week; test ASO 40 mg/kg sc twice a week 3 weeks; vs untreated PBS control
Experimental: (§1) Vascular permeability induced by ISIS 461756, an antisense oligonucleotide which targets murine C1 inhibitor mRNA, increases vascular permeability in mice and replicates the pathology of hereditary angioedema. The effect of ISIS 410944 on this model was evaluated.
(§2) One group of 8 mice was treated with 40 mg/kg ISIS 410944 administered subcutaneously twice a week for 3 weeks (weekly dose of 80 mg/kg). A second group of 8 mice was treated with 40 mg/kg of the control oligonucleotide, ISIS 141923, administered subcutaneously twice a week for 3 weeks (weekly dose of 80 mg/kg). A third group of 8 mice was treated with PBS administered subcutaneously twice a week for 3 weeks. On day 14, all the groups were treated with 12.5 mg/kg ISIS 461756 administered subcutaneously twice a week for 3 weeks (weekly dose of 25 mg/kg). A control group of mice was treated with PBS administered subcutaneously twice a week for 3 weeks but was not administered ISIS 461756.
(§3) At the end of the treatment period, all the groups were injected with 30 mg/kg of Evans Blue solution into the tail vein. The mice were sacrificed 30 min after the Evans Blue solution administration and colons, feet, ears, and intestines were harvested. The liver was also harvested for RNA analysis.
The harvested tissues from the feet, colon, and intestine were placed in formamide solution overnight to leach out the Evans Blue dye. The formamide solution containing feet tissue was heated to 55° C. and left overnight. The color intensity of the dye-infused formamide solution was then measured at OD600nm. The data is presented in Table 20 as percent increase or reduction compared to the PBS control not treated with ISIS 461756.

[3] = system: C1-INH mRNA; assay: Liver RT-PCR of C1-INH mRNA, C1-INH ASO-induced angioedema model (Example 9); format: in vivo, mouse; details: all groups given ISIS 461756 12.5 mg/kg sc twice a week, test ASO 40 mg/kg sc twice a week 3 weeks, vs PBS control not treated with ISIS 461756
Experimental: as §1, §2, §3
(§4) RNA was isolated from the liver for RT-PCR analysis of C1-INH and Factor 12 mRNAs. […]

[4] = system: Factor 12 mRNA; assay: Liver RT-PCR of Factor 12 mRNA, C1-INH ASO-induced angioedema model (Example 9); format: in vivo, mouse; details: all groups given ISIS 461756 12.5 mg/kg sc twice a week, test ASO 40 mg/kg sc twice a week 3 weeks, vs PBS control not treated with ISIS 461756
Experimental: as §1, §2, §3, §4

[5] = system: Factor 12; assay: Spectrozyme Factor 12a based amidolytic assay for Factor 12 activation in plasma (Example 8); format: in vivo; details: mouse plasma; for % F12 activation compared to the PBS control: dextran sulfate
Experimental: The effect of antisense inhibition of kallikrein (KLKB1) mRNA on Factor 12 protein activation was evaluated.
Group 1 consisted of 8 mice and was treated with PBS administered subcutaneously twice a week for 3 weeks. No other treatment was administered to Group 1 which served as a control group to measure Factor 12 activation.
Groups 2, 3, 4, 5, and 6 consisted of 8 mice each and were treated with 2.5 mg/kg, 5 mg/kg, 10 mg/kg, 20 mg/kg, or 40 mg/kg (corresponding to 5 mg/kg, 10 mg/kg, 20 mg/kg, 40 mg/kg, or 80 mg/kg per week), respectively of ISIS 482584 administered subcutaneously twice a week for 3 weeks. Groups 2-6 served as the treatment groups for measuring the effect of ISIS 482584 on Factor 12 activation.
At the end of the treatment period, plasma was harvested from the mice for the Spectrozyme® Factor 12a based amidolytic assay for Factor 12 in plasma.
Plasma (5 μL) was added to 85 μL of PBS with 1 ug/ml dextran sulfate (500 kDa) in a 96 well polypropelene microplate and the solution was incubated for 5 minutes at room temperature. Spectrozyme® FXIIa (10 μL of a 2 mM solution) and 0.2 mM KALLISTOP™ solution was added and the absorbance kinetic was measured at 405 nm. Factor 12 activation was measured in the linear phase of absorbance accumulation. The results are presented in Table 18 as a percentage of Factor 12 activation measured in the PBS control sample.

| Substance | Percent change in vascular permeability, Colon [2] | Percent change in vascular permeability, Feet [2] | Percent change in vascular permeability, Intestines [2] | Percent inhibition of mRNA expression, Factor 12 mRNA [4] | other results |
| --- | --- | --- | --- | --- | --- |
| HOE-140 |  |  |  |  | Percentage of OD620 nm of Evans Blue dye compared to the PBS basal control to measure vascular leakage, Plasma [1]: 70% |
| ISIS 141923: control oligonucleotide, a 5-10-5 MOE gapmer with no known murine target, CCTTCCCTGAAGGTTCCTCC; SEQ ID NO: 38 (sugars from the 5' end e5 d10 e5, backbone and methylation of C not given here) | 2% | 80% | 14% | 0% | Percent inhibition of mRNA expression, C1-INH mRNA [3]: 79% |
| ISIS 461756: 5-10-5 MOE gapmer AAAGTGGTTGATACCCTGGG (SEQ ID NO: 37) which targets murine C1 inhibitor mRNA; induces vascular permeability (sugars from the 5' end e5 d10 e5, backbone and methylation of C not given here) | 13% | 70% | 27% | 0% |  |
| ISIS 482584: 5-10-5 MOE gapmer targeting kallikrein (KLKB1), GGCATATTGGTTTTTGGAAT; SEQ ID NO: 39 (sugars from the 5' end e5 d10 e5, backbone and methylation of C not given here) |  |  |  |  | % F12 activation compared to the PBS control ([5]; 5 mg/kg/wk sc 3 weeks): 82%; % F12 activation compared to the PBS control ([5]; 10 mg/kg/wk sc 3 weeks): 63%; % F12 activation compared to the PBS control ([5]; 20 mg/kg/wk sc 3 weeks): 47%; % F12 activation compared to the PBS control ([5]; 40 mg/kg/wk sc 3 weeks): 24%; % F12 activation compared to the PBS control ([5]; 80 mg/kg/wk sc 3 weeks): 14%; activation of Factor 12 ([5]; 5-80 mg/kg/wk sc 3 weeks): decreased activation of Factor 12 |
